Numbers after ± are expanded uncertainties. One block for each compound: values may come before it.
Experiment: wn = mass fraction of the nth substance listed
Conditions: 288.15 K, 100 kPa, Liquid, Pycnometric method

mass density (w1 = 0.0912): 1075.6 ± 2.4 kg/m3
SMILES: O=S(=O)([O-])[O-].[K+].[K+] [potassium sulfate] + O

mass density (w1 = 0.2472): 1168.2 ± 2.9 kg/m3
SMILES: [Cl-].[K+] [potassium chloride] + O

mass density (w1 = 0.1653): 1122.9 ± 2.6 kg/m3
SMILES: O=P([O-])(O)O.[K+] [monopotassium phosphate] + O

Source: the NIST ThermoML archive (doi:10.1021/acs.jced.5b01111)
